The source of these data is patent US9296691B2, “Inhibitors of p75 receptor and their uses” (Horacio Uri Saragovi, priority 2010, dated 2016).

The test system of assay [1] is retinal ganglion cells (RGCs). Nature of the assay: Glaucoma (episcleral vein cauterization) model, quantification of surviving RGCs. In kind it is in vivo. As to conditions: rat glaucoma, intravitreal injections days 14 and 21, endpoint day 42 (FIG. 2D). As for the experimental part: (§1) Wistar rats (female, 250-300 g; Charles River) were kept in a 12 hours dark-light cycle with food and water ad libitum. All animal manipulations were performed between 9 AM and 12 AM. Deep anesthesia was used during cauterization (induction of glaucoma), ON transection, fluorogold labeling, intraocular injection procedures, Optical Coherence Tomography measurements, and euthanasia (ketamine, xylazine, acepromazine injected intraperitoneally: 50/5/1 mg/kg, as per IACUC recommendations). For measuring IOP, light anesthesia was used (a gas mixture of Oxygen, 2% isofluorane mixture, at a rate of 2.5 liter/min, as per IACUC recommendations).
The episcleral vein cauterization (EVC) model of rat (Shi et al., 2007; Shi et al., 2008) was used. […]
(§2) For studies in the glaucoma animal model the injections were performed at days 14 and 21 after cauterization. […] Thus, in this paradigm there is pre-existing damage for 14 days before treatment (measured at ˜8% RGC death (Shi et al., 2007; Shi et al., 2008)); and the treatments require long-lived efficacy in the constant presence of retinal stress due to high IOP. […]
(§3) Quantification of labeled RGCs was performed as reported (Shi et al., 2007; Shi et al., 2008). […] Pictures for each freshly flat-mounted retina were taken using a Zeiss fluorescence microscope (Carl Zeiss Meditec, Jena, Germany), with 12 pictures/retina at 20× magnification. […]

For the next assay, the target named is T1, p75-Fc (Homo sapiens, UniProt P08138).
T1 construct: purchased R&D
T1 sequence (P08138 29-250 limits assumed): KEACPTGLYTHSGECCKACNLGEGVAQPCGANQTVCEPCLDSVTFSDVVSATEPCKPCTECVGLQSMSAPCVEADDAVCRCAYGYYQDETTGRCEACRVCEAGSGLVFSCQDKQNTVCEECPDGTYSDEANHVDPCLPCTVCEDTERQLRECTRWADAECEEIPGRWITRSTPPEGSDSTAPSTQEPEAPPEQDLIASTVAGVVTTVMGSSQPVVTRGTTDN
Put plainly: Competitive ELISA, p75-Fc binding to immobilized NGF. To be noted: competitive ELISA, FIG. 1A, compound at 30 μM. Here is the method: (§4) The effect of compounds I-B and LM-24 on the binding between NGF and p75 was tested in competitive ELISA assays, where the antagonists prevent soluble p75 from binding to immobilized NGF. The selectivity of antagonism was evaluated by lack of effect upon NGF-TrkA or lack of effect between NGF and anti-NGF monoclonal antibody (mAb) NGF30 interactions (FIG. 1A).
The compound LM-24 has been reported by others (Massa et al., 2006). Binding studies were carried out with all the compounds using I-B as reference.
(§5) Competitive ELISAs were performed as described (Saragovi et al., 1998). The procedure immobilized 50 ng/well NGF, or pro-NGF (Alomone Labs, Israel) onto polystyrene 96-well microtest plates, with washing and blocking with binding buffer (BB; phosphate buffered saline containing 0.5% bovine serum albumin). The following primary reagents in BB were added: recombinant chimeric p75-Fc or recombinant chimeric TrkA-Fc (R&D), or anti-NGF mAb NGF30 (Saragovi et al., 1998); each at 50 nM. The competitors I-B and the other test compounds (or control LM-24) were added at the indicated concentrations, and the plates were incubated for 45 minutes. After washing 3× in BB, HRP-conjugated secondary reagents (Sigma) were added for 30 min (goat anti-human Fc for p75-Fc and for TrkA-Fc; and goat anti-rat Ab for NGF30 mAb), and then wells were washed 3× in BB and 1× in PBS. Peroxidase activity was determined colorimetrically using the substrate TMB One Solution (Promega). The reaction was stopped with 0.5 N H2SO4 and the plates were read at 450 nm (Benchmark Plus, Bio-Rad). Assays were repeated n>4 times, with replicates of 4 wells each assay. […] Wells with no NGF immobilized but with all other reagents added were treated as background (<15% of maximal signals) and standardized to 0% binding.

The next assay addresses T2, TrkA-Fc (Homo sapiens, UniProt P04629).
T2 construct: purchased R&D
Nature of the assay: Competitive ELISA, TrkA-Fc binding to immobilized NGF (selectivity control). To be noted: competitive ELISA, FIG. 1A, compound at 30 μM. Here is the method:
as §4, §5

For assay [2], the system named is retinal ganglion cells (RGCs). Nature of the assay: ON axotomy model, quantification of surviving RGCs (fluorogold labeled). It is filed as in vivo. To be noted: rat ON axotomy, one intravitreal injection 3 μg, day 14; contralateral normal eye = 100%; control axotomy 10%. As for the experimental part: as §1
The ON axotomy model in the rat (Bai et al., 2010a) was used. […]
as §2, §3

The test system of assay [3] is NGI (NFL-GCL-IPL) retinal layers. Put plainly: ON axotomy model, retinal NGI thickness by FD-OCT. It is filed as in vivo. As to conditions: rat ON axotomy, 3 μg intravitreal immediately after axotomy, days 11 and 14, versus untreated axotomy. As for the experimental part:
Antagonists of p75NTR prevented loss of retinal structure after ON axotomy. The relative in vivo efficacy for I-B and LM-24 was tested using the ON axotomy model. A quantitative non-invasive structural endpoint, FD-OCT, was performed in the same animal over time to measure the integrity of the neuronal layers. We quantified the axons and fibers of the RGCs that contribute to the thickness of the Nerve Fiber Layer (NFL), the Ganglion Cell Layer (GCL), and the Inner Plexiform Layer (IPL), herein termed NGI. Maintenance of NGI structure correlates with RGC health (Bai et al., 2010a).
Wistar rats (female, 250-300 g; Charles River) were kept in a 12 hours dark-light cycle with food and water ad libitum. All animal manipulations were performed between 9 AM and 12 AM. […]
FD-OCT is a non-invasive method that allows time-kinetic studies in the same animal. […] In each B-scan the thickness of the NFL-GCL-IPL (NGI) was measured at four adjacent points at a distance 1.5 mm from the ON head. […]
as §2

The test system of a further assay is anti-NGF mAb NGF30. Put plainly: Competitive ELISA, anti-NGF mAb NGF30 binding to immobilized NGF (selectivity control). As to conditions: competitive ELISA, FIG. 1A, compound at 30 μM. As for the experimental part: as §4, §5

T2 sequence (P04629 33-423 limits assumed): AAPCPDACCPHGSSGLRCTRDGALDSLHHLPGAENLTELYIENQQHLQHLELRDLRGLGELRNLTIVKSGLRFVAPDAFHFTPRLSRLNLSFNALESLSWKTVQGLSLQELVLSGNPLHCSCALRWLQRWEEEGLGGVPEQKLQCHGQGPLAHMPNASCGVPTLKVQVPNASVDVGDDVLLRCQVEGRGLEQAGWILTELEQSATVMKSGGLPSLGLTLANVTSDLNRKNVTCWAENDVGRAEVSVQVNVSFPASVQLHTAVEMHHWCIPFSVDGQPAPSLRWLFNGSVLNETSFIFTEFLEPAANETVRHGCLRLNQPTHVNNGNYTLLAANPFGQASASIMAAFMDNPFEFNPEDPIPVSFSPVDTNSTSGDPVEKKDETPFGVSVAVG

Consider `CN(C)CCCNC(=O)Cn1cnc2c1c(=O)n(C)c(=O)n2C` [LM-24, reference compound], for which the “prevention of RGC death” value in assay [1] is recorded as “significantly prevent the death of RGCs”. For the same compound, the “effect on NGF-p75NTR interaction” value on p75-Fc was “antagonized NGF-p75NTR interactions selectively”. Moreover, the “effect on binding of TrkA to NGF” value at TrkA-Fc is “did not interfere”. For the same compound, in assay [2], the RGCs surviving worked out at 21%. For the same compound, in assay [3], the “preservation of NGI thickness (FD-OCT)” value is given as “very limited preservation of the NGI thickness”. The “effect on mAb NGF30 binding to NGF” value with anti-NGF mAb NGF30 is on record as “did not interfere”.
